Results from patent US7049323B2, “Amidoheterocycles as modulators of the melanocortin-4 receptor” (Bristol-Myers Squibb Company, priority 2003, dated 2006).

Target: T1, cloned human MC4R receptors (Homo sapiens, UniProt P32245)
T1 construct: expressed in transfected cells; host or cells: Hi5 insect cells or HEK-293 cells (baculovirus/human MC4R receptor construct); membranes
Assay: Melanocortin MC4R membrane binding assay ([125I]NDP-α-MSH competition)
Settings: [125I]NDP-α-MSH 0.1 nM, membranes of Hi5 insect cells or HEK-293 cells, 90 minutes at 37° C.
Method: Melanocortin MC4R Binding Assay. […] A membrane binding assay was used to identify competitive ligands of [^125I]NDP-α-MSH binding to cloned human MC4R receptors expressed in Hi5 insect cells or HEK-293 cells transfected by a baculovirus/human MC4R receptor construct. The membrane binding buffer was composed of 25 mM HEPES, pH 7.4, 140 mM NaCl, 1.2 mM MgCl2, 2.5 mM CaCl2, and 0.1% BSA Membrane protein (0.5 μg) and [^125I]-NDP-α-MSH (to a final concentration of 0.1 nM) were added. Competing ligands or a buffer blank were added and incubated for 90 minutes at 37° C. After filtration, the cell membranes were evaluated in a Wallac Microbeta Trilux Scintillation and Luminescence Counter (Model 1450). Dose-response cureves were fitted by […] analyses and IC50 values are calculated using ExcelFit.

T1 sequence (P32245 whole entry): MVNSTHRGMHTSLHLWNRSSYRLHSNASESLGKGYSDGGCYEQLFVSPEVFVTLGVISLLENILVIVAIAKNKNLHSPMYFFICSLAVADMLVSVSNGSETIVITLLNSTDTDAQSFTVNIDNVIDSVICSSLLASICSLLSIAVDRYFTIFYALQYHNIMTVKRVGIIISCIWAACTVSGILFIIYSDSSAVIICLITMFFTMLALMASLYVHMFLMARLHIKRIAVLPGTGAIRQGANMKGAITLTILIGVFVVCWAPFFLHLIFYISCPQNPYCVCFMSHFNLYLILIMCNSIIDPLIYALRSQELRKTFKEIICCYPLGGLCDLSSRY

IC50 [nM]	SMILES
250 to 1000	CCCC(=O)N(C1CCCC1)C1CN(C(=O)[C@@H](Cc2ccc(Cl)cc2)NC(=O)CCN(C)C)C1 [Example 1]
250 to 1000	CCCC(=O)N(C1CCCCCC1)C1CN(C(=O)[C@@H](Cc2ccc(Cl)cc2)NC(=O)CCN(C)C)C1 [Example 3]
250 to 1000	CN(C)CCC(=O)N[C@H](Cc1ccc(Cl)cc1)C(=O)N1CC(N(C2CCCCC2)S(C)(=O)=O)C1 [Example 4]
1000 to 10000	CN(C)CCC(=O)N[C@H](Cc1ccc(Cl)cc1)C(=O)N1CC(N(C(=O)c2ccno2)C2CCCCC2)C1 [Example 6]
250 to 1000	CN(C)CCC(=O)N[C@H](Cc1ccc(Cl)cc1)C(=O)N1CC(N(C(=O)C2CCC2)C2CCCCC2)C1 [Example 7]
< 250	CC(C)CC(=O)N(C1CCCCC1)C1CN(C(=O)[C@@H](Cc2ccc(Cl)cc2)NC(=O)CCN(C)C)C1 [Example 14]
< 250	O=C(N[C@H](Cc1ccc(Cl)cc1)C(=O)N1CCC(N(C(=O)c2ccno2)C2CCCCC2)C1)[C@H]1Cc2ccccc2CN1 (stereo partly shown) [Example 17]
250 to 1000	O=C(N[C@H](Cc1ccc(Cl)cc1)C(=O)N1CC[C@@H](N(C(=O)c2ccno2)C2CCCCC2)C1)[C@H]1Cc2ccccc2CN1 [Example 19]
250 to 1000	NCCC(=O)N[C@H](Cc1ccc(Cl)cc1)C(=O)N1CC[C@H](N(C(=O)c2cnccn2)C2CCCCC2)C1 [Example 28]
250 to 1000	COCC(=O)N(C1CCCCC1)[C@H]1CCN(C(=O)[C@@H](Cc2ccc(Cl)cc2)NC(=O)CCN)C1 [Example 31]
1000 to 10000	CC(=O)N(C1CCCCC1)[C@H]1CCN(C(=O)[C@@H](Cc2ccc(Cl)cc2)NC(=O)CCN)C1 [Example 43]
1000 to 10000	NCCC(=O)N[C@H](Cc1ccc(Cl)cc1)C(=O)N1CC[C@H](N(C=O)C2CCCCC2)C1 [Example 44]
< 250	CC(C)C(=O)N(C1CCCCC1)[C@H]1CCN(C(=O)[C@@H](Cc2ccc(Cl)cc2)NC(=O)CCN)C1 [Example 45]
1000 to 10000	CC(C)CN(C(=O)c1ccco1)[C@H]1CCN(C(=O)[C@@H](Cc2ccc(Cl)cc2)NC(=O)CCN)C1 [Example 47]
1000 to 10000	NCCC(=O)N[C@H](Cc1ccc(Cl)cc1)C(=O)N1CC[C@H](N(C(=O)c2ccco2)C2CCCC2)C1 [Example 52]
1000 to 10000	CN(C)CCC(=O)N[C@H](Cc1ccc(Cl)cc1)C(=O)N1CC[C@H](N(C2CCCCC2)S(C)(=O)=O)C1 [Example 56]
1000 to 10000	CC(=O)N(C1CCCCC1)[C@H]1CCN(C(=O)[C@@H](Cc2ccc(Cl)cc2)NC(=O)CCN(C)C)C1 [Example 58]
1000 to 10000	CN(C)CCC(=O)N[C@H](Cc1ccc(Cl)cc1)C(=O)N1CC[C@H](N(C=O)C2CCCCC2)C1 [Example 59]
1000 to 10000	CC(C)CC(=O)N(C1CCCC1)[C@H]1CCN(C(=O)[C@@H](Cc2ccc(Cl)cc2)NC(=O)CCN(C)C)C1 [Example 61]
250 to 1000	CN(C)CCC(=O)N[C@H](Cc1ccc(Cl)cc1)C(=O)N1CC[C@H](N(C(=O)c2ccco2)C2CCCC2)C1 [Example 64]

More lines, now with the values behind:

SMILES	IC50 [nM]
CCCC(=O)N(C1CCCCC1)C1CN(C(=O)[C@@H](Cc2ccc(Cl)cc2)NC(=O)CCN(C)C)C1 [Example 2]	< 250
CN(C)CCC(=O)N[C@H](Cc1ccc(Cl)cc1)C(=O)N1CC(N(C2CCCCC2)S(=O)(=O)c2ccccc2)C1 [Example 5]	250 to 1000
CN(C)CCC(=O)N[C@H](Cc1ccc(Cl)cc1)C(=O)N1CC(N(C(=O)CC2CCCC2)C2CCCCC2)C1 [Example 8]	250 to 1000
CN(C)CCC(=O)N[C@H](Cc1ccc(Cl)cc1)C(=O)N1CC(N(C(=O)CC(C)(C)C)C2CCCCC2)C1 [Example 9]	250 to 1000
CN(C)CCC(=O)N[C@H](Cc1ccc(Cl)cc1)C(=O)N1CC(N(C(=O)Cc2ccccc2)C2CCCCC2)C1 [Example 10]	250 to 1000
CCCCC(=O)N(C1CCCCC1)C1CN(C(=O)[C@@H](Cc2ccc(Cl)cc2)NC(=O)CCN(C)C)C1 [Example 11]	250 to 1000
CN(C)CCC(=O)N[C@H](Cc1ccc(Cl)cc1)C(=O)N1CC(N(C(=O)c2cc3ccccc3s2)C2CCCCC2)C1 [Example 12]	250 to 1000
CN(C)CCC(=O)N[C@H](Cc1ccc(Cl)cc1)C(=O)N1CC(N(C(=O)COc2ccccc2)C2CCCCC2)C1 [Example 13]	1000 to 10000
CCCCCC(=O)N(C1CCCCC1)C1CN(C(=O)[C@@H](Cc2ccc(Cl)cc2)NC(=O)CCN(C)C)C1 [Example 15]	250 to 1000
CN(C)CCC(=O)N[C@H](Cc1ccc(Cl)cc1)C(=O)N1CC(N(C(=O)C2CCCC2)C2CCCCC2)C1 [Example 16]	< 250
O=C(N[C@H](Cc1ccc(Cl)cc1)C(=O)N1CC[C@H](N(C(=O)c2ccno2)C2CCCCC2)C1)[C@H]1Cc2ccccc2CN1 [Example 18]	< 250
NCCC(=O)N[C@H](Cc1ccc(Cl)cc1)C(=O)N1CC[C@H](N(C(=O)c2ccno2)C2CCCCC2)C1 [Example 22]	< 250
NCCC(=O)N[C@H](Cc1ccc(Cl)cc1)C(=O)N1CC[C@@H](N(C(=O)c2ccno2)C2CCCCC2)C1 [Example 23]	1000 to 10000
NCCC(=O)N[C@H](Cc1ccc(Cl)cc1)C(=O)N1CC[C@H](N(C(=O)c2ccco2)C2CCCCC2)C1 [Example 24]	1000 to 10000
NCCC(=O)N[C@H](Cc1ccc(Cl)cc1)C(=O)N1CC[C@@H](N(C(=O)c2ccccc2)C2CCCCC2)C1 [Example 25]	250 to 1000
NCCC(=O)N[C@H](Cc1ccc(Cl)cc1)C(=O)N1CC[C@H](N(C(=O)c2ccco2)C2CCCCC2)C1 [Example 26]	< 250
NCCC(=O)N[C@H](Cc1ccc(Cl)cc1)C(=O)N1CC[C@H](N(C(=O)c2ccccc2)C2CCCCC2)C1 [Example 27]	< 250
NCCC(=O)N[C@H](Cc1ccc(Cl)cc1)C(=O)N1CC[C@H](N(C(=O)c2ccoc2)C2CCCCC2)C1 [Example 29]	< 250
CCCC(=O)N(C1CCCCC1)[C@H]1CCN(C(=O)[C@@H](Cc2ccc(Cl)cc2)NC(=O)CCN)C1 [Example 30]	< 250

SMILES	IC50 [nM]
CC(C)(C)C(=O)N(C1CCCCC1)[C@H]1CCN(C(=O)[C@@H](Cc2ccc(Cl)cc2)NC(=O)CCN)C1 [Example 32]	< 250
NCCC(=O)N[C@H](Cc1ccc(Cl)cc1)C(=O)N1CC[C@H](N(C(=O)CC2CCCC2)C2CCCCC2)C1 [Example 33]	< 250
Cc1noc(C)c1C(=O)N(C1CCCCC1)[C@H]1CCN(C(=O)[C@@H](Cc2ccc(Cl)cc2)NC(=O)CCN)C1 [Example 34]	< 250
CS(=O)(=O)N(C1CCCCC1)[C@H]1CCN(C(=O)[C@@H](Cc2ccc(Cl)cc2)NC(=O)[C@H]2Cc3ccccc3CN2)C1 [Example 35]	< 250
CC(C)N(C(=O)c1ccco1)[C@@H]1CCN(C(=O)[C@@H](Cc2ccc(Cl)cc2)NC(=O)CCN)C1 [Example 36]	1000 to 10000
CC(C)N(C(=O)c1ccco1)[C@H]1CCN(C(=O)[C@@H](Cc2ccc(Cl)cc2)NC(=O)[C@H]2Cc3ccccc3CN2)C1 [Example 38]	250 to 1000
CS(=O)(=O)N(C1CCCCC1)[C@H]1CCN(C(=O)[C@@H](Cc2ccc(Cl)cc2)NC(=O)CCN)C1 [Example 39]	250 to 1000
CS(=O)(=O)N(C1CCCCC1)[C@H]1CCN(C(=O)[C@@H](Cc2ccc(Cl)cc2)NC(=O)[C@@H]2CNCCN2)C1 [Example 40]	250 to 1000
CC(C)CC(=O)N(C(C)C)[C@H]1CCN(C(=O)[C@@H](Cc2ccc(Cl)cc2)NC(=O)[C@@H]2CNCCN2)C1 [Example 42]	250 to 1000
CC(C)C(=O)N(C1CCCCC1)[C@H]1CCN(C(=O)[C@@H](Cc2ccc(Cl)cc2)NC(=O)[C@@H]2CNCCN2)C1 [Example 46]	< 250
CC(C)CC(=O)N(CC(C)C)[C@H]1CCN(C(=O)[C@@H](Cc2ccc(Cl)cc2)NC(=O)CCN)C1 [Example 48]	1000 to 10000
CC(C)CN([C@H]1CCN(C(=O)[C@@H](Cc2ccc(Cl)cc2)NC(=O)CCN)C1)S(C)(=O)=O [Example 49]	1000 to 10000
CS(=O)(=O)N(C1CCCC1)[C@H]1CCN(C(=O)[C@@H](Cc2ccc(Cl)cc2)NC(=O)CCN)C1 [Example 50]	1000 to 10000
CC(C)CC(=O)N(C1CCCC1)[C@H]1CCN(C(=O)[C@@H](Cc2ccc(Cl)cc2)NC(=O)CCN)C1 [Example 51]	250 to 1000
CC(C)N([C@H]1CCN(C(=O)[C@@H](Cc2ccc(Cl)cc2)NC(=O)CCN)C1)S(C)(=O)=O [Example 53]	1000 to 10000
CC(C)N(C(=O)c1ccco1)[C@H]1CCN(C(=O)[C@@H](Cc2ccc(Cl)cc2)NC(=O)CCN(C)C)C1 [Example 55]	1000 to 10000
CC(C)C(=O)N(C1CCCCC1)[C@H]1CCN(C(=O)[C@@H](Cc2ccc(Cl)cc2)NC(=O)CCN(C)C)C1 [Example 60]	< 250
CC(C)N([C@H]1CCN(C(=O)[C@@H](Cc2ccc(Cl)cc2)NC(=O)CCN(C)C)C1)S(C)(=O)=O [Example 62]	1000 to 10000
CC(C)CN(C(=O)c1ccco1)[C@H]1CCN(C(=O)[C@@H](Cc2ccc(Cl)cc2)NC(=O)CCN(C)C)C1 [Example 65]	1000 to 10000
